Test results from publication PMC12692713, “Neuroprotective and Antioxidant Properties of Different Novel Steroid-Derived Nitrones and Oximes on Cerebral Ischemia In Vitro” (International Journal of Molecular Sciences, 2025).
Like-named read-outs stand apart in the source and are kept apart here.

Target: T1, soybean lipoxygenase (LOX) (Glycine max, UniProt P08170)
T1 construct: gene LOX1.1
T1 sequence (P08170 1-839): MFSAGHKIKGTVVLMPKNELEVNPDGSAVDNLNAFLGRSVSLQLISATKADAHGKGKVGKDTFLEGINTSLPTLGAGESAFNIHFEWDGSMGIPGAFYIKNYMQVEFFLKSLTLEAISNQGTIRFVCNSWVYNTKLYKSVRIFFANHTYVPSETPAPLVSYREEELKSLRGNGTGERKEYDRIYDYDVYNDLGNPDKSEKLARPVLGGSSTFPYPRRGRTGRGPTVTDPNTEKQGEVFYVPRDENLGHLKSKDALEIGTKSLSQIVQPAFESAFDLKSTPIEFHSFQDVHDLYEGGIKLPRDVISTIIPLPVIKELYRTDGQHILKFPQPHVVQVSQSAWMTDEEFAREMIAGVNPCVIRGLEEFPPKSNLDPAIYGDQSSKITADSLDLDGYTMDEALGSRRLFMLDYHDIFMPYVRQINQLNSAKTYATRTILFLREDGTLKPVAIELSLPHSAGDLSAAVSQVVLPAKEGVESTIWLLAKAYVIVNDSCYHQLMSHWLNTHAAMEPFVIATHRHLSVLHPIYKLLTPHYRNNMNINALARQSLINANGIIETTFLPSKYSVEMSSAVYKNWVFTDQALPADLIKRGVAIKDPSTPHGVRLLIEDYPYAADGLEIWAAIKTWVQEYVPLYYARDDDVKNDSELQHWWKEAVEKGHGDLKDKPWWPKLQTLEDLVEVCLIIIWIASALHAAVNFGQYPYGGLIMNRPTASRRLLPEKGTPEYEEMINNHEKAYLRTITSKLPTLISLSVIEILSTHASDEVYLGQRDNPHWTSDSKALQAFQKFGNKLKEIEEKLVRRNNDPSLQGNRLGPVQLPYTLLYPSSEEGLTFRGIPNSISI
Assay: UV absorbance at […] nm, conversion of sodium linoleate to 13-hydroperoxylinoleic acid, Tris pH […]
Format: biochemical

IC50 (read-out: LOX Inhibition (% or IC50)) [µM] | SMILES | IC50 [µM]
 | C#C[C@]1(O)CC[C@H]2[C@@H]3CCC4=CC(=[N+](C)[O-])CC[C@]4(C)[C@H]3CC[C@@]21C [MC3] | 62 ± 0.8
 | C#C[C@]1(O)CC[C@H]2[C@@H]3CCC4=CC(=NO)CC[C@]4(C)[C@H]3CC[C@@]21C (mixture of isomers) [MC2] | 97 ± 1.5
3.8 ± 0.3 | CC#C[C@]1(O)CC[C@H]2[C@@H]3CCC4=CC(=NO)CCC4=C3[C@@H](c3ccc(N(C)C)cc3)C[C@@]21C [MC4] | 
